Consider nine compounds from US20240116912A1, “COMPOUNDS AND METHODS FOR MODULATING FXR” (Terns Pharmaceuticals, Inc., priority 2020, published 2024).

Chain of full length human FXR protein (Q96RI1 whole entry, the tested form may be a part): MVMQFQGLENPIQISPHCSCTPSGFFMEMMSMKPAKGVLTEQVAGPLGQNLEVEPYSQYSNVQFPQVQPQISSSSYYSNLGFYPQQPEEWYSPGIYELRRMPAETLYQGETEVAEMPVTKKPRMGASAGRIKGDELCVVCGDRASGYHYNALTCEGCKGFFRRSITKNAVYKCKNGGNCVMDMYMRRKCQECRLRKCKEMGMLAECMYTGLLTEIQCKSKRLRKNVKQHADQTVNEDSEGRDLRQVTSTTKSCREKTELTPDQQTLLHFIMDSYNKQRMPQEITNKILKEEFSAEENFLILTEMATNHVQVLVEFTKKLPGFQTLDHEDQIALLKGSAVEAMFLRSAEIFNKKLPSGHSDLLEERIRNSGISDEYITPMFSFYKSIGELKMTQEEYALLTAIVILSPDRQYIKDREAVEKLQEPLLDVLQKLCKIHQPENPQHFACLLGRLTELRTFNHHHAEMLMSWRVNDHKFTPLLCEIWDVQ

This assay addresses full length human FXR protein (Homo sapiens (Human), UniProt Q96RI1). As to the kind of experiment: FXR cellular assay (FXR-SRCP β-gal enzyme fragment complementation in CHO-K1 cells, chemiluminescence). The format is cell-based. The settings on record: CHO-K1 cells with SRCP-EA and ProLink-labeled FXR, 0-10 micromolar compound, 37° C. for 6h, read-out: EC50 FXR-cell Luminescence/. The text has this:
A cell based FXR assay was used to detect protein-protein interactions between an activated (ligand-bound), full length human FXR protein and a nuclear fusion protein containing a Steroid Receptor Coactivator Peptide (SCRP) domain. In this approach, two weakly complementing fragments of the 3-gal enzyme were expressed within stably transfected Chinese Hamster Ovary (CHO-K1) cells. The complementing fragments of the 3-gal enzyme (ProLink, PK; and Enzyme Acceptor, EA) were translationally fused to the C-terminus of a full-length FXR and to the SRCP, respectively. Complementation was driven by the protein-protein interaction between SRCP-EA and a ProLink-labeled FXR. Upon FXR-SRCP binding, the two fragments of 3-gal complement, forming a functional enzyme capable of hydrolyzing a substrate molecule and generating a chemiluminescent signal.
CHO-K1 cells containing SRCP-EA and ProLink-labeled FXR were plated in 384-well microplates and incubated at 37° C. overnight. A positive control FXR agonist, GW4064 (0-10 micromolar), or test compounds (0-10 micromolar) were added to plated cells and incubated at 37° C. for 6h (final DMSO vehicle concentration was 1%). The assay signal was generated by addition of 50% (v/v) detection reagent (19:5:1, cell assay buffer: substrate reagent 1: substrate reagent 2, DiscoverX) followed by incubation for 1h at ambient room temperature. Microplates were analyzed using an Envision reader (PerkinElmer Life and Analytical Sciences, Signal=chemiluminescence).
With `N#Cc1n[nH]c(=O)n(-c2ccc(N3CCC(OCc4c(-c5ccccc5OC(F)(F)F)noc4C4CC4)CC3)cc2)c1=O` [Example 86, 4-(4-(4-((5-cyclopropyl-3-(2-(trifluoromethoxy)phenyl)isoxazol-4-yl)methoxy)piperidin-1-yl)phenyl)-3,5-dioxo-2,3,4,5-tetrahydro-1,2,4-triazine-6-carbonitrile], the EC50 is 22.9 µM.
The value for `N#Cc1nn(-c2ccc(N3[C@@H]4CC[C@H]3C[C@@H](OCc3c(-c5ccccc5OC(F)(F)F)noc3C3CC3)C4)cc2)c(=O)[nH]c1=O` [Example 89, 2-(4-((1R,3r,5S)-3-((5-cyclopropyl-3-(2-(trifluoromethoxy)phenyl)isoxazol-4-yl)methoxy)-8-azabicyclo[3.2.1]octan-8-yl)phenyl)-3,5-dioxo-2,3,4,5-tetrahydro-1,2,4-triazine-6-carbonitrile] was 1 µM; that for `C[C@@H]1C[C@H](OCc2c(-c3ccccc3OC(F)(F)F)noc2C2CC2)CCN1c1ccc(-c2noc(=O)[nH]2)cn1` [Example 76, 3-(6-((2R,4R)-4-((5-cyclopropyl-3-(2-(trifluoromethoxy)phenyl)isoxazol-4-yl)methoxy)-2-methylpiperidin-1-yl)pyridin-3-yl)-1,2,4-oxadiazol-5(4H)-one] was 0.196 µM; that for `N#Cc1nn(-c2ccc(N3CCC(OCc4c(-c5c(Cl)cccc5Cl)noc4C4CC4)CC3)nc2)c(=O)[nH]c1=O` [Example 82, 2-(6-(4-((5-cyclopropyl-3-(2,6-dichlorophenyl)isoxazol-4-yl)methoxy)piperidin-1-yl)pyridin-3-yl)-3,5-dioxo-2,3,4,5-tetrahydro-1,2,4-triazine-6-carbonitrile] was 1.83 µM.
Take `O=c1cc(-c2ccc(N3CCC(OCc4c(-c5ccccc5OC(F)(F)F)noc4C4CC4)C(F)(F)C3)cc2)o[nH]1` (stereo not drawn) [Example 84, 5-(4-(4-((5-cyclopropyl-3-(2-(trifluoromethoxy)phenyl)isoxazol-4-yl)methoxy)-3,3-difluoropiperidin-1-yl)phenyl)isoxazol-3(2H)-one]: the EC50 worked out at 1.53 µM.
The value for `N#Cc1nn(-c2ccc(N3CCC(OCc4c(-c5ccccc5OC(F)(F)F)noc4C4CC4)CC3)cc2)c(=O)[nH]c1=O` [Example 85, 2-(4-(4-((5-cyclopropyl-3-(2-(trifluoromethoxy)phenyl)isoxazol-4-yl)methoxy)piperidin-1-yl)phenyl)-3,5-dioxo-2,3,4,5-tetrahydro-1,2,4-triazine-6-carbonitrile] was 0.755 µM; that for `O=c1[nH]c(-c2ccc(N3CC[C@@H](OCc4c(-c5ccccc5OC(F)(F)F)noc4C4CC4)[C@H](F)C3)cc2)no1` [Example 79, 3-(4-((3R,4R)-4-((5-cyclopropyl-3-(2-(trifluoromethoxy)phenyl)isoxazol-4-yl)methoxy)-3-fluoropiperidin-1-yl)phenyl)-1,2,4-oxadiazol-5(4H)-one] was 0.312 µM.
On to `N#Cc1n[nH]c(=O)n(-c2ccc(N3CCC(OCc4c(-c5c(Cl)cccc5Cl)noc4C4CC4)CC3)nc2)c1=O` [Example 83, 4-(6-(4-((5-cyclopropyl-3-(2,6-dichlorophenyl)isoxazol-4-yl)methoxy)piperidin-1-yl)pyridin-3-yl)-3,5-dioxo-2,3,4,5-tetrahydro-1,2,4-triazine-6-carbonitrile], for which the EC50 worked out at 5.25 µM.
For `O=c1cnn(-c2ccc(N3[C@@H]4CC[C@H]3C[C@@H](OCc3c(-c5ccccc5OC(F)(F)F)noc3C3CC3)C4)cc2)c(=O)[nH]1` [Example 88, 2-(4-((1R,3r,5S)-3-((5-cyclopropyl-3-(2-(trifluoromethoxy)phenyl)isoxazol-4-yl)methoxy)-8-azabicyclo[3.2.1]octan-8-yl)phenyl)-1,2,4-triazine-3,5(2H,4H)-dione], the EC50 came out at 0.46 µM.
